According to patent publication US5948793A, “3-pyridyloxymethyl heterocyclic ether compounds useful in controlling neurotransmitter release” (Abbott Laboratories, priority 1995, dated 1999):
Where a name gives a salt, the structure may show the parent alone.

What follows are compounds tested against neuronal nicotinic cholinergic channel receptors (assay: [3H]-cytisine displacement binding to neuronal nicotinic cholinergic channel receptors). Settings: Table 2; [3H]-cytisine 1.25 nM, 60 min at 4° C.; dihydrochloride; read-out: Receptor Binding Ki.
Assay type: rat (crude synaptic membranes from whole rat brain)
Protocol: B. Protocol For Determination of Nicotinic Cholinergic Channel Receptor Binding Potencies of Ligands
Binding of [^3 H]-cytisine ([^3 H]-CYT) to nicotinic receptors was accomplished using crude synaptic membrane preparations from whole rat brain (Pabreza et al., Molecular Pharmaol., 1990, 39:9). Washed membranes were stored at -80° C. prior to use. Frozen aliquots were slowly thawed and resuspended in 20 volumes of buffer (containing: 120 mM NaCl, 5 mM KCl, 2 mM MgCl2, 2 mM CaCl2 and 50 mM Tris-Cl, pH 7.4 @4° C.). After centrifuging at 20,000×g for 15 minutes, the pellets were resuspended in 30 volumes of buffer. Homogenate (containing […]) was added to triplicate tubes containing concentrations of test compound and [^3 H]-CYT (1.25 nM) in a final volume of 500 μL. Samples were incubated for 60 minutes at 4° C., then rapidly filtered through Whatman GF/B filters presoaked in 0.5% polyethylimine using 3×4 mL of ice-cold buffer. The filters are counted in 4 mL of Ecolume® (ICN). […] Alternately, data were expressed as a percentage of the total specific binding.

Row | Compound | Ki
1 | Cc1ncccc1OC[C@H]1CCN1 [Example 41, 2-methyl-3-(2-(R)-azetidinylmethoxy)pyridine dihydrochloride] | 9.9 nM

Same assay, conditions: Table 2; [3H]-cytisine 1.25 nM, 60 min at 4° C.; read-out: Receptor Binding Ki

Row | Compound | Ki
2 | Clc1ncccc1OC[C@@H]1CCCN1 [Example 43, 2-chloro-3-(2-(S)-pyrrolidinylmethoxy)pyridine dihydrochloride] | 18.6 nM
3 | FC(F)(F)c1cncc(OC[C@H]2CCCN2)c1 [Example 69, 3-(2-(R)-pyrrolidinylmethoxy)-5-trifluoromethylpyridine dihydrochloride] | 2.1 nM
4 | CCCCc1cncc(OC[C@@H]2CCCN2C)c1 [Example 71, 5-n-butyl-3-((1-methyl-2-(S)-pyrrolidinyl)methoxy)pyridine dihydrochloride] | 0.1 nM
5 | CN1CCC[C@H]1COc1cnccn1 [Example 3, 2-((1-methyl-2-(S)-pyrrolidinyl)methoxy)pyrazine fumarate] | 20 nM
6 | Cc1ncccc1OC[C@@H]1CCCN1C [Example 53, 2-methyl-3-(1-methyl-2-(S)-pyrrolidinylmethoxy)pyridine dihydrochloride] | 28 nM
7 | CN1CCC[C@H]1COc1nccs1 [Example 11, 2-((1-methyl-2-(S)-pyrrolidinyl)methoxy)thiazole hydrochloride] | 110 nM
8 | CN1CCC[C@H]1COc1cccnn1 [Example 79, 3-((1-methyl-2-(S)-pyrroidinyl)methoxy)pyridazine dihydrochloride] | 42.8 nM
9 | c1cncc(OCC[C@@H]2CCCN2)c1 [Example 102, 3-(2-(2-(S)-pyrrolidinyl)ethoxy)pyridine dihydrochloride] | 34.9 nM
10 | CN1C[C@H](OS(C)(=O)=O)C[C@H]1COc1cccnc1 [Example 87, 3-((trans-4-methanesulfonyloxy-1-methyl-2(S)-pyrrolidinyl)methoxy)pyridine dihydrochloride] | 0.11 nM
11 | COCC1C[C@@H](COc2cccnc2)N(C)C1 (stereo partly drawn) [Example 49, 3-((4-methoxymethyl-1-methyl-2-(S)-pyrrolidinyl)methoxy)pyridine dihydrochloride] | 66 nM
12 | CN1C[C@@H](C#N)C[C@H]1COc1cccnc1 [Example 90, 3-((cis-4-cyano-1-methyl-2(S)-pyrrolidinyl)methoxy)pyridine dihydrochloride] | 18.4 nM
13 | c1cnc(OC[C@@H]2CCN2)cn1 [Example 7, 2-(2-(S)-azetidinylmethoxy)pyrazine dihydrochloride] | 0.44 nM
14 | C=CCN1CCC[C@H]1COc1cncc(Br)c1 [Example 57, 3-((1-allyl-2-(S)-pyrrolidinyl)methoxy)-5-bromopyridine dihydrochloride] | 17 nM
15 | CN1CC[C@H]1COc1cncc(Cl)c1 [Example 80, 5-chloro-3-((1-methyl-2-(S)-azetidinyl)methoxy)pyridine dihydrochloride] | 1.9 nM
16 | Clc1cncc(OC[C@@H]2CCCN2)c1 [Example 15, 5-chloro-3-(2-(S)-pyrrolidinylmethoxy)pyridine dihydrochloride] | 0.13 nM
17 | Cc1ccc(OC[C@@H]2CCN2)cn1 [Example 40, 6-methyl-3-(2(S)-azetidinylmethoxy)pyridine dihydrochloride] | 0.05 nM
18 | CN1CCCC[C@@H]1COc1cccnc1 [Example 42, 3-((1-methyl-2-(R)-piperidinyl)methoxy)pyridine dihydrochloride] | 342 nM
19 | CN1CC[C@@H]1COc1cccnc1 [Example 63, 3-((1-methyl-2-(R)-azetidinyl)methoxy)pyridine dihydrochloride] | 1.4 nM

Same assay, conditions: read-out: Receptor Binding Ki

Row | Compound | Ki
20 | CC[C@@H]1C[C@@H](COc2cccnc2)N(C)C1 [Example 25, 3-((trans-1-methyl-4-ethyl-2(S)-pyrrolidinyl)methoxy)pyridine dihydrochloride] | 14.7 nM
21 | CN1CCC[C@@H]1COc1cncc(Cl)c1 [Example 34, 5-chloro-3-((1-methyl-2-(R)-pyrrolidinyl)methoxy)pyridine dihydrochloride] | 11 nM
22 | CN1CCC[C@H]1COc1cnccc1Br [Example 21, 4-bromo-3-((1-methyl-2-(S)-pyrrolidinyl)methoxy)pyridine dihydrochloride] | 23 nM
